# Where two headings read alike, the source gives them in different places.
# Legend:
# [1] = test system: Mouse leukemia P-388 cells; test: Cytotoxicity on P-388 cells (MTT assay); assay type: cell-based; settings: for IC₅₀: 72 hours incubation; for IC50: Mus musculus, P388, 72 hours incubation, read-out: IC₅₀
# Description: Cytotoxicity of the compounds according to the present invention was determined by MTT assay in the following manner.
# Mouse leukemia P-388 cells were suspended in RPMI medium supplemented with 10% fetal calf serum and this suspension was used to inoculate the 96-well microplate to give a cell concentration of 2 × 10³ cells/well. The compound shown in Table 2 was dissloved in RPMI medium and add to each well for the test group, while no compound was added to wells of the control group. Incubation was carried out at 37°C for 72 hours at 5% CO₂. Then, MTT (3-(4,5-dimethylthiazol-2-yl)-2,5-diphenyl tetrazolium bromide) was added to each well to cause formation of formazan. The resulting formazan was dissolved by adding sodium dodecyl sulfate. Absorbance at 577-630 nm of each well was measured by the ELISA analyzer and 50% ihibitory concentration (IC₅₀) of each compound was calculated from the absorbance ratio of the test group to the control group.
# [2] = test system: Mouse leukemia P-388 cells; test: Antitumor activity in mice transplanted intraperitoneally with P-388 cells; assay type: in vivo, BDF₁ mice; settings: intraperitoneal, 24 hours after transplantation, hydrochloride
# Description: Antitumor activity of hydrochlorides of the compounds of the present invention was determined in the following manner.
# Mouse leukemia P-388 cells maintained in the abdominal cavity of BDF₁ mouse were taken out and were suspended in physiological saline to give a cell concnetration of 1 × 10⁶ cells/0.2 mℓ. The cell suspension (0.2 mℓ) was transplanted to the abdominal cavity of 5-week-old male BDF₁ mice. The compounds of the present invention as shown in Table 3 was dissolved in 0.2 mℓ of physiological saline and was intraperitoneally administered to the mouse 24 hours after the transplantation of P-388 cells. No compound was administered to the mice of the control group. The T/C% value was calculated in accordance with the following formula. [formula]
# [3] = Acute toxicity (LD50) in mice; settings: mouse, in vivo, hydrochloride, read-out: LD₅₀
# Description: The hydrochlorides of the compounds of the present invention as shown in Table 4 were intraperitoneally or intravenously administered to mice and acute toxicity (LD₅₀) of each compound was measured.
# [4] = mouse, i.v.; cited from earlier work
molecule,measurement,setting,value
"3′,11-O-diisobutyryl SF2587 [Compound 8]",IC₅₀,[1],23.1 ng/mL
same,Anti-P388 Activity (T/C%),[2]; Dose 2.5 mg/kg,113%
same,Anti-P388 Activity (T/C%),[2]; Dose 5 mg/kg,144%
same,Anti-P388 Activity (T/C%),[2]; Dose 10 mg/kg,175%
same,Anti-P388 Activity (T/C%),[2]; Dose 20 mg/kg,>488%
same,Anti-P388 Activity (T/C%),[2]; Dose 40 mg/kg,69%
"3′,11-O-divaleryl SF2587 [Compound 9]",IC₅₀,[1],34.3 ng/mL
same,Anti-P388 Activity (T/C%),[2]; Dose 2.5 mg/kg,96%
same,Anti-P388 Activity (T/C%),[2]; Dose 5 mg/kg,117%
same,Anti-P388 Activity (T/C%),[2]; Dose 10 mg/kg,147%
same,Anti-P388 Activity (T/C%),[2]; Dose 20 mg/kg,189%
same,Anti-P388 Activity (T/C%),[2]; Dose 40 mg/kg,227%
3′-O-Butyryl SF2587 [Compound 5],IC₅₀,[1],17.8 ng/mL
same,Anti-P388 Activity (T/C%),[2]; Dose 1.25 mg/kg,158%
same,Anti-P388 Activity (T/C%),[2]; Dose 2.5 mg/kg,186%
same,Anti-P388 Activity (T/C%),[2]; Dose 5 mg/kg,72%
3′-O-acetyl SF2587 Substance [Compound 1],IC₅₀,[1],19.4 ng/mL
same,Anti-P388 Activity (T/C%),[2]; Dose 0.25 mg/kg,124%
same,Anti-P388 Activity (T/C%),[2]; Dose 0.5 mg/kg,134%
same,Anti-P388 Activity (T/C%),[2]; Dose 1.0 mg/kg,144%
3′-O-isobutyryl SF2587 [Compound 7],IC₅₀,[1],55.2 ng/mL
3′-O-propionyl SF2587 [Compound 3],IC₅₀,[1],19.9 ng/mL
11-O-Butyryl SF2587 [Compound 10],IC₅₀,[1],16.0 ng/mL
"CC(=O)Oc1c(C2CC(C)(N(C)C)C(OC(C)=O)C(C)O2)ccc2c1C(=O)c1c(cc(C)c3c(=O)cc(C4(C)OC4C4OC4C)oc13)C2=O (centres unmarked) [Compound 2, 3′, 11-O-acetyl-SF2587]",IC50,[1],0.0231 µg/mL
same,LD50,"[3]; ip, injection route i.p.",16 mg/kg
same,LD50,"[3]; iv, injection route i.v.",23.5 mg/kg
same,Anti-P388 Activity (T/C%),[2]; Dose 3.5 mg/kg,163%
same,Anti-P388 Activity (T/C%),[2]; Dose 7 mg/kg,>200%
same,Anti-P388 Activity (T/C%),[2]; Dose 14 mg/kg,70%
"CCC(=O)Oc1c(C2CC(C)(N(C)C)C(OC(=O)CC)C(C)O2)ccc2c1C(=O)c1c(cc(C)c3c(=O)cc(C4(C)OC4C4OC4C)oc13)C2=O (centres unmarked) [Compound 4, 3′,11-O-dipropionyl SF2587]",IC50,[1],0.0181 µg/mL
same,LD50,"[3]; ip, injection route i.p.",40 mg/kg
same,Anti-P388 Activity (T/C%),[2]; Dose 1.56 mg/kg,130%
same,Anti-P388 Activity (T/C%),[2]; Dose 3.13 mg/kg,133%
same,Anti-P388 Activity (T/C%),[2]; Dose 6.25 mg/kg,217%
same,Anti-P388 Activity (T/C%),[2]; Dose 12.5 mg/kg,>449%
same,Anti-P388 Activity (T/C%),[2]; Dose 25 mg/kg,71%
"CCCC(=O)Oc1c(C2CC(C)(N(C)C)C(OC(=O)CCC)C(C)O2)ccc2c1C(=O)c1c(cc(C)c3c(=O)cc(C4(C)OC4C4OC4C)oc13)C2=O (centres unmarked) [Compound 6, 3′-11-O-dibutyryl SF2587]",IC50,[1],0.0231 µg/mL
same,LD50,"[3]; ip, injection route i.p.",120 mg/kg
same,Anti-P388 Activity (T/C%),[2]; Dose 1.25 mg/kg,96%
same,Anti-P388 Activity (T/C%),[2]; Dose 2.5 mg/kg,113%
same,Anti-P388 Activity (T/C%),[2]; Dose 5 mg/kg,144%
same,Anti-P388 Activity (T/C%),[2]; Dose 10 mg/kg,186%
same,Anti-P388 Activity (T/C%),[2]; Dose 20 mg/kg,>485%
Cc1cc2c(c3oc(C4(C)OC4C4OC4C)cc(=O)c13)C(=O)c1c(ccc(C3CC(C)(N(C)C)C(O)C(C)O3)c1O)C2=O (centres unmarked) [SF2587],LD₅₀,[4],about 5 mg/kg
